Laboratory results from patent publication US9561220B2, “Group of alkaloids, the novel autophagic enhancers for treatment of cancers and neurodegenerative conditions thereof” (Macau University of Science and Technology, priority 2014, dated 2017).

Assays:
[1] = tested on: mutant huntingtin aggregate (HDQ55); test: Mutant huntingtin aggregate by fluorescence imaging; type: cell-based; settings: PC 12 cells, fluorescence imaging (FIG. 8c)
Experimental: (§1) PC 12 cells were transfected transiently with EGFP-HDQ55/74 plasmids for 24 h using Lipofectamine Plus LTX reagent (Invitrogen) according to the manufacturer's protocol. The transfected cells were then treated with […], isoliensinine, dauricine, cepharanthine, hernandezine and thalidezine for 24 h. The removal of mutant huntingtin, ([…]74) was then quantitated by immunoblotting with antibody against EGFP or by immunocytochemistry under fluorescence microscopy.

[2] = tested on: HeLa cells expressing GFP-LC3; test: GFP-LC3 puncta quantification in the presence of AMPK inhibitor compound C; type: cell-based, human; settings: compound C 5 μM, 24 hours (FIG. 5b)
Experimental: GFP-LC3 puncta formation was quantified as previously described. In brief, HeLa cells expressing GFP-LC3 were treated with indicated concentrations of […], isoliensinine, dauricine, cepharanthine, hernandezine and thalidezine in the presence of AMPK inhibitor, compound C (CC, 5 μM), for 24 hours. The cells were then fixed in 4% paraformaldehyde for 20 minutes at room temperature and then rinsed with PBS. Slides were mounted with FluorSaveTM mounting media (Calbiochem) and examined by fluorescence microscopy. To quantify for autophagy, the percentage of cells with punctate GFP-LC3 fluorescence was calculated by counting the number of the cells with punctate GFP-LC3 fluorescence in GFP-positive cells. A minimum of 150 cells from 3 randomly selected fields were scored.

[3] = tested on: EGFP-tagged mutant huntingtin (HDQ55, HDQ74); test: Removal of mutant huntingtin by immunoblotting against EGFP; type: cell-based; settings: PC 12 cells, 5-10 μM, 24 h, immunoblotting against EGFP antibody (FIG. 8b)
Experimental: as §1

[4] = tested on: Atg7-knockout (Atg7-ko or Atg7−/−) mouse embryonic fibroblasts; test: GFP-LC3 puncta in Atg7 deficient MEFs; type: cell-based; settings: 20 μM liensinine or 10 μM others, 24 h (FIGS. 4a to 4c)
Experimental: GFP-LC3 puncta formation was quantified as previously described. In brief, both Atg7 wild-type (Atg7-wt or Atg7+/+) and deficient (Atg7-/-) mouse embryonic fibroblasts (MEFs) were transfected with GFP-LC3 plasmid and then grown on coverslips in a 6-well plate. The cells were then treated with 20 μM of […], 10 μM of isoliensinine, 10 μM of dauricine, 10 μM of cepharanthine, hernandezine or 10 μM of thalidezine. for 24 h. The cells were then fixed in 4% paraformaldehyde for 20 minutes at room temperature and then rinsed with PBS. Slides were mounted with FluorSaveTM mounting media (Calbiochem, San Diego, Calif.) and examined by fluorescence microscopy. The number of GFP-positive cells with GFP-LC3 puncta formation was examined under the Nikon ECLIPSE 80i microscope. Representative images were captured with CCD digital camera Spot RT3TM (Diagnostic Instruments, Inc., Melville, N.Y.). To quantify for autophagy, the percentage of cells with punctate GFP-LC3 fluorescence was calculated by counting the number of the cells with punctate GFP-LC3 fluorescence in GFP-positive cells. A minimum of 150 cells from 3 randomly selected fields were scored.

HeLa cancer cells = test: Quantification of autophagy GFP-LC3 puncta in HeLa cells; type: cell-based, human; settings: 20 μM liensinine or 10 μM others, 4 hours, compared to DMSO control (FIG. 2a)
Experimental: GFP-LC3 puncta formation was quantified as previously described. In brief, GFP-LC3 transfected cells grown on coverslips in a 6-well plate were treated with or without 20 μM of […], 10 μM of isoliensinine, dauricine, cepharanthine, hernandezine or thalidezine for 4 hours, the cells were then fixed in 4% paraformaldehyde for 20 minutes at room temperature and then rinsed with PBS. Slides were mounted with FluorSaveTM mounting media (Calbiochem, San Diego, Calif.) and examined by fluorescence microscopy. The number of GFP-positive cells with GFP-LC3 puncta formation was examined under the Nikon ECLIPSE 80i microscope. Representative images were captured with CCD digital camera Spot RT3TM (Diagnostic Instruments, Inc., Melville, N.Y.). To quantify for autophagy, the percentage of cells with punctate GFP-LC3 fluorescence was calculated by counting the number of the cells with punctate GFP-LC3 fluorescence in GFP-positive cells. A minimum of 150 cells from 3 randomly selected fields was scored.

LC3-II = test: Detection of autophagic marker protein LC3 conversion (Western blot); type: cell-based, human; settings: HeLa cells, Western blot (FIG. 2b)
Experimental: After treatments with […], isoliensinine, dauricine, cepharanthine, hernandezine and thalidezine, cells were harvested and lysed in RIPA buffer (Cell Signaling Technologies Inc., Beverly, Mass.). The cell lysates were then resolved by SDS-PAGE. After electrophoresis, the proteins from SDS-PAGE were transferred to nitrocellulose membrane which was then blocked with 5% non-fat dried milk for 60 minutes. The membrane was then incubated with LC3 primary antibodies (1:1000) in TBST overnight at 4° C. After that, the membrane was further incubated with HRP-conjugated secondary antibodies for 60 minutes. Finally, protein bands were visualized by using the ECL Western Blotting Detection Reagents (Invitrogen, Paisley, Scotland, UK).

[5] = tested on: HeLa cells expressing GFP-LC3; test: GFP-LC3 puncta quantification in the presence of autophagic inhibitor 3-MA; type: cell-based, human; settings: 20 μM liensinine or 10 μM others, 3-MA 5 mM, 4 hours (FIG. 3)
Experimental: GFP-LC3 puncta formation was quantified as previously described. In brief, HeLa cells expressing GFP-LC3 were treated with 20 μM of […], or 10 μM of isoliensinine, dauricine, cepharanthine, hernandezine or thalidezine in the presence of autophagic inhibitor, 3-methyl adenine (3-MA, 5 mM), for 4 hours. The cells were then fixed in 4% paraformaldehyde for 20 minutes at room temperature and then rinsed with PBS. Slides were mounted with FluorSaveTM mounting media (Calbiochem) and examined by fluorescence microscopy. To quantify for autophagy, the percentage of cells with punctate GFP-LC3 fluorescence was calculated by counting the number of the cells with punctate GFP-LC3 fluorescence in GFP-positive cells. A minimum of 150 cells from 3 randomly selected fields were scored.

Compound: COc1cc2c(cc1OC)[C@@H](Cc1ccc(Oc3cc(C[C@@H]4c5cc(OC)c(OC)cc5CCN4C)ccc3O)cc1)N(C)CC2 [dauricine]
- formed mutant huntingtin aggregate (HDQ55) [1]: significantly reduced
- compound-induced GFP-LC3 puncta formation in the presence of AMPK inhibitor (Compound C) [2]: significant reduction
- clearance of overexpressed EGFP-tagged mutant huntingtin (HDQ55, HDQ74) [3]: enhanced
- GFP-LC3 puncta formation in Atg7-knockout cells [4]: not
- GFP-LC3 puncta formation (HeLa cancer cells): significantly induced
- conversion of the autophagic marker LC3-II (LC3-II): induced
- compound-induced GFP-LC3 puncta formation in the presence of autophagic inhibitor (3-MA) [5]: significant reduction

Compound: COc1ccc2cc1Oc1ccc(cc1)C[C@H]1c3cc(c(OC)cc3CCN1C)Oc1c(OC)c(OC)c(OC)c3c1[C@H](C2)N(C)CC3 [hernandezine]
- formed mutant huntingtin aggregate (HDQ55) [1]: significantly reduced
- compound-induced GFP-LC3 puncta formation in the presence of AMPK inhibitor (Compound C) [2]: significant reduction
- clearance of overexpressed EGFP-tagged mutant huntingtin (HDQ55, HDQ74) [3]: enhanced
- GFP-LC3 puncta formation in Atg7-knockout cells [4]: not
- GFP-LC3 puncta formation (HeLa cancer cells): significantly induced
- conversion of the autophagic marker LC3-II (LC3-II): induced
- compound-induced GFP-LC3 puncta formation in the presence of autophagic inhibitor (3-MA) [5]: significant reduction

Compound: COc1ccc(C[C@@H]2c3cc(Oc4cc(C[C@@H]5c6cc(O)c(OC)cc6CCN5C)ccc4O)c(OC)cc3CCN2C)cc1 [isoliensinine]
- formed mutant huntingtin aggregate (HDQ55) [1]: significantly reduced
- compound-induced GFP-LC3 puncta formation in the presence of AMPK inhibitor (Compound C) [2]: significant reduction
- clearance of overexpressed EGFP-tagged mutant huntingtin (HDQ55, HDQ74) [3]: enhanced
- GFP-LC3 puncta formation in Atg7-knockout cells [4]: not
- GFP-LC3 puncta formation (HeLa cancer cells): significantly induced
- conversion of the autophagic marker LC3-II (LC3-II): induced
- compound-induced GFP-LC3 puncta formation in the presence of autophagic inhibitor (3-MA) [5]: significant reduction

Compound: COc1cc2c(cc1OC)[C@@H](Cc1ccc(O)c(Oc3cc4c(cc3OC)CCN(C)[C@@H]4Cc3ccc(O)cc3)c1)N(C)CC2 [liensinine]
- formed mutant huntingtin aggregate (HDQ55) [1]: significantly reduced
- compound-induced GFP-LC3 puncta formation in the presence of AMPK inhibitor (Compound C) [2]: significant reduction
- clearance of overexpressed EGFP-tagged mutant huntingtin (HDQ55, HDQ74) [3]: enhanced
- GFP-LC3 puncta formation in Atg7-knockout cells [4]: not
- GFP-LC3 puncta formation (HeLa cancer cells): significantly induced
- conversion of the autophagic marker LC3-II (LC3-II): induced
- compound-induced GFP-LC3 puncta formation in the presence of autophagic inhibitor (3-MA) [5]: significant reduction

Compound: thalidezine
- formed mutant huntingtin aggregate (HDQ55) [1]: significantly reduced
- compound-induced GFP-LC3 puncta formation in the presence of AMPK inhibitor (Compound C) [2]: significant reduction
- clearance of overexpressed EGFP-tagged mutant huntingtin (HDQ55, HDQ74) [3]: enhanced
- GFP-LC3 puncta formation in Atg7-knockout cells [4]: not
- GFP-LC3 puncta formation (HeLa cancer cells): significantly induced
- conversion of the autophagic marker LC3-II (LC3-II): induced
- compound-induced GFP-LC3 puncta formation in the presence of autophagic inhibitor (3-MA) [5]: significant reduction
